In BindingDB's records for PubMed 1857334 (National Institute of Mental Health, 1991):

Target: T1, Adenosine receptor A1 (Rattus norvegicus, UniProt P25099)
T1 sequence (P25099 whole entry): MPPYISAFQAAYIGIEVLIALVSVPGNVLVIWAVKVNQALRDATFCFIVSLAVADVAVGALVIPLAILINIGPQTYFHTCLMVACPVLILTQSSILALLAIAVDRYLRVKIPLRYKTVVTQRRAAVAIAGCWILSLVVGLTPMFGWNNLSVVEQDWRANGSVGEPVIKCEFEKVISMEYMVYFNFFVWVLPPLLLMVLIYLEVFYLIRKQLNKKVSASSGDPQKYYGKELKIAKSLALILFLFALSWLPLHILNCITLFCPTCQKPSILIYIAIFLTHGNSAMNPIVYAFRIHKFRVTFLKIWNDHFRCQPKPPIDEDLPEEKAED

Question: CCCn1c(=O)c2[nH]c(-c3ccc(OCC(=O)NCCN)cc3)nc2n(CCC)c1=O [N-(2-Amino-ethyl)-2-[4-(2,6-dioxo-1,3-dipropyl-2,3,6,9-tetrahydro-1H-purin-8-yl)-phenoxy]-acetamide] was tested. Which Ki did it give?
Answer: The Ki was 2 nM.
